The text below walks through data of ChEMBL document CHEMBL3407449, “Synthesis, anticancer and radiosensitizing evaluation of some novel sulfonamide derivatives” (Eur J Med Chem, 2015).

Test [1] deals with HepG2. Kind of test: Cytotoxicity against human HepG2 cells assessed as surviving fraction ratio after 48 hrs by SRB assay relative to control. The class given is functional, cell-based. The conditions noted are these: Homo sapiens, HepG2, 48 h; read-out: IC50. For orientation: The SRB assay estimates cell density from bound dye.
In test [2] the test system is HepG2. Kind of test: Cytotoxicity against human HepG2 cells assessed as surviving fraction ratio at 25 uM after 48 hrs by SRB assay relative to control. It is filed as functional.
The subject of test [3] is HepG2. Kind of test: Cytotoxicity against human HepG2 cells assessed as surviving fraction ratio at 5 uM after 48 hrs by SRB assay relative to control. It is filed as functional.
The subject of test [4] is HepG2. Put plainly: Cytotoxicity against human HepG2 cells assessed as surviving fraction ratio at 5 uM incubated for 2 hrs prior to 8Gy gamma-irradiation measured after 48 hrs by ELISA reader relative to control. The class given is functional.
Test [5] concerns HepG2. Kind of test: Cytotoxicity against human HepG2 cells assessed as surviving fraction ratio at 12.5 uM incubated for 2 hrs prior to 8Gy gamma-irradiation measured after 48 hrs by ELISA reader relative to control. The class given is functional.
Test [6] relates to HepG2. Kind of test: Cytotoxicity against human HepG2 cells assessed as surviving fraction ratio at 25 uM incubated for 2 hrs prior to 8Gy gamma-irradiation measured after 48 hrs by ELISA reader relative to control. It is filed as functional.
The subject of test [7] is HepG2. Kind of test: Cytotoxicity against human HepG2 cells assessed as surviving fraction ratio incubated for 2 hrs prior to 8Gy gamma-irradiation measured after 48 hrs by ELISA reader relative to control. It is filed as functional, cell-based. The conditions noted are these: HepG2, light or radiation study.
Test [8] has as its system HepG2. Kind of test: Cytotoxicity against human HepG2 cells assessed as surviving fraction ratio at 50 uM after 48 hrs by SRB assay relative to control. It is filed as functional.
Test [9] has as its system HepG2. Put plainly: Cytotoxicity against human HepG2 cells assessed as surviving fraction ratio at 12.5 uM after 48 hrs by SRB assay relative to control. It is filed as functional.
The subject of test [10] is HepG2. Kind of test: Cytotoxicity against human HepG2 cells assessed as surviving fraction ratio at 50 uM incubated for 2 hrs prior to 8Gy gamma-irradiation measured after 48 hrs by ELISA reader relative to control. It is filed as functional.

Take `C/C(=N/n1c(N)c(C#N)c(-c2ccc([N+](=O)[O-])cc2)c(C#N)c1=O)c1ccc(NS(=O)(=O)c2ccc(C)cc2)cc1`: the IC50 (in general, the midpoint of a concentration-inhibition curve) turned out to be 31.5 µM in test [1] and 23.5 µM in test [7]. The Ratio in [2] is 0.331; in [3], 0.951; in test [4], 0.439; in test [5], 0.603; in [6], 0.345; in test [8], 0.408. Moreover, the Ratio in test [9] is given as 0.635; in test [10] it was 0.352.
